Measurements published in ChEMBL document CHEMBL1138162, “Phenyl ureas of creatinine as mGluR5 antagonists. A structure-activity relationship study of fenobam analogues” (Bioorg Med Chem Lett, 2006).

Key:
[1] = molecular target: Metabotropic glutamate receptor 5 (Homo sapiens, UniProt P41594); assay: Inhibition of glutamate-induced calcium influx in human mGluR5d by FLIPR; format: functional
[2] = molecular target: Metabotropic glutamate receptor 5 (Rattus norvegicus, UniProt P31424); assay: Displacement of [3H]MPEP from mGluR5d in rat brain membrane; format: cell membranes
[3] = species on record: Homo sapiens; assay: Clearance in human; format: ADME, organism-based; conditions: in vivo
[4] = species on record: Rattus norvegicus; assay: Clearance in rat; format: ADME, organism-based; conditions: in vivo

Chain of Metabotropic glutamate receptor 5 (Homo sapiens, UniProt P41594) (P41594 whole entry): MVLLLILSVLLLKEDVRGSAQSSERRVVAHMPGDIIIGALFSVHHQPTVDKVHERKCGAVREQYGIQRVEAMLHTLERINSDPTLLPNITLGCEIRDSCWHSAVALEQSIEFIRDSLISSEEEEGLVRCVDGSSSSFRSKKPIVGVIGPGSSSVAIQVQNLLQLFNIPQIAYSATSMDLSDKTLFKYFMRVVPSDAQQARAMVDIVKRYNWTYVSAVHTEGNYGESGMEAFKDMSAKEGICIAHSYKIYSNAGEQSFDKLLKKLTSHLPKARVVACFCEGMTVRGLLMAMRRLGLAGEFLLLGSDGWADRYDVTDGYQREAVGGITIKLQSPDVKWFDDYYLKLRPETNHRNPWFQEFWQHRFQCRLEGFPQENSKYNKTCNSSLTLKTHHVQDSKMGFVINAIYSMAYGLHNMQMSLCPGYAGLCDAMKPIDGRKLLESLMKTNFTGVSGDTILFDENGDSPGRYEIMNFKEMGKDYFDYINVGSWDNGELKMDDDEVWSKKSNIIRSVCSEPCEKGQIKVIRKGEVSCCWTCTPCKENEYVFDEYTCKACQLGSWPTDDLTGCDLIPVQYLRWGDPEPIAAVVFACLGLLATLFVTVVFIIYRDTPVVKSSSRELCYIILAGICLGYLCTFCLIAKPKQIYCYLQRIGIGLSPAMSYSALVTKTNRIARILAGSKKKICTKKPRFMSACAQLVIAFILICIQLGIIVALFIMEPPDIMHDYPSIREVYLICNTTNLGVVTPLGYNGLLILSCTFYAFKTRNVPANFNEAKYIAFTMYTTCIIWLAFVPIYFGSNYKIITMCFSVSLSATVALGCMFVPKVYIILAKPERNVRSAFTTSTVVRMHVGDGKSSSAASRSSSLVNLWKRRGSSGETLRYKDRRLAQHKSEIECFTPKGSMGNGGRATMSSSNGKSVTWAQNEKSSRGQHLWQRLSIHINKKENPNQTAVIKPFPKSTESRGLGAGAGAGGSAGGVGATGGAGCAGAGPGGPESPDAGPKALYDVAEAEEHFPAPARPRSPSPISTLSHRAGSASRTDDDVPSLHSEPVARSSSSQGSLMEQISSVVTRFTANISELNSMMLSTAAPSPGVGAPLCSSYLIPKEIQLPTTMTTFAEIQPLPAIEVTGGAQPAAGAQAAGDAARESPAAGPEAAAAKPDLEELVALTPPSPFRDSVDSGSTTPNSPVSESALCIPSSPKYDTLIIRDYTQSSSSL
Chain of Metabotropic glutamate receptor 5 (Rattus norvegicus, UniProt P31424) (P31424 whole entry): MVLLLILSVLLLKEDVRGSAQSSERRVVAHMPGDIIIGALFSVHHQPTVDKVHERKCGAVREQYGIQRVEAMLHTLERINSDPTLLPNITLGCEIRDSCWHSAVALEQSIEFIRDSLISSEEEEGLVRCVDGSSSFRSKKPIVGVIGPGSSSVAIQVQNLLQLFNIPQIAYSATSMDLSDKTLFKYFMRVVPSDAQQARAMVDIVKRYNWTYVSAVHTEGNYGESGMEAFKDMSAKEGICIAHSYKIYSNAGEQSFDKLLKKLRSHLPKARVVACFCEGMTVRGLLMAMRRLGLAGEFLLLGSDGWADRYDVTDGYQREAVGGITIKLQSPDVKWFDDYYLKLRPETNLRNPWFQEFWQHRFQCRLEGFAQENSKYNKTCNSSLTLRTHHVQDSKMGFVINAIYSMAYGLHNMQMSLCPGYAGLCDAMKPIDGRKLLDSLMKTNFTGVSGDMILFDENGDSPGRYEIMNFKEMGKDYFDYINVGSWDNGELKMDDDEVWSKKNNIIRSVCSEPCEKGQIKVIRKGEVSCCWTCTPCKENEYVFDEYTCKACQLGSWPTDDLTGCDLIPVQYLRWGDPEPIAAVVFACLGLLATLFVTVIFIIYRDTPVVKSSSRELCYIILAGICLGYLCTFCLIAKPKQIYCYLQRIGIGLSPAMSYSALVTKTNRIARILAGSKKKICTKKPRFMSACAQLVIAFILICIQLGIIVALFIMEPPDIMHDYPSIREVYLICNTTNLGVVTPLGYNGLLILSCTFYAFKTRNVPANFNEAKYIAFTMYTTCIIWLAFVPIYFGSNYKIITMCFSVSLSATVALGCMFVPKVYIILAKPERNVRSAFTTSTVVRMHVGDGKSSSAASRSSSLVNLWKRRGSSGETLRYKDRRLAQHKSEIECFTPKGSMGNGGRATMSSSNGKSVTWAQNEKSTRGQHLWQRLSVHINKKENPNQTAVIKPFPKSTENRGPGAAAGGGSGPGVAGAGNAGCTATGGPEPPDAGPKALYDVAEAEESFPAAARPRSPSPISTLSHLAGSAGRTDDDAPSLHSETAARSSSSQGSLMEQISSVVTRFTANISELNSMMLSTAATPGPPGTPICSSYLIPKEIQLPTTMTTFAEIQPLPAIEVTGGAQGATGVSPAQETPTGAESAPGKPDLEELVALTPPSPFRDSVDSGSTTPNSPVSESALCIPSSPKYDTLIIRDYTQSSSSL

| SMILES | IC50 ([1]; read-out: IC50) | IC50 [2] | other results |
| --- | --- | --- | --- |
| Cc1cccc(C)c1NC(=O)/N=C1\CCCN1C [XILOBAM] | > 10000 nM |  |  |
| COc1cccc(NC(=O)NC2=NC(=O)CN2C)c1 | 2800 nM |  |  |
| Cn1ccnc1NC(=O)Nc1cccc(Cl)c1 | > 10000 nM | > 10000 nM |  |
| CN1CC(=O)N=C1NC(=O)Nc1cccs1 | 4900 nM |  |  |
| CN1CC(=O)N=C1NC(=O)c1cccc(Cl)c1 | 2300 nM |  |  |
| CN1CCS/C1=N\C(=O)Nc1cccc(Cl)c1 | 260 nM | 1200 nM |  |
| CN1CC(=O)N=C1NC(=O)Nc1cccc(Br)c1 | 380 nM |  |  |
| Cc1ccc(NC(=O)NC2=NC(=O)CN2C)nc1 | 3100 nM |  |  |
| CN1CC(=O)N/C1=N\C(=O)Nc1ccccc1 | 4900 nM |  |  |
| CN1CC(=O)N=C1NC(=O)Nc1cc(Cl)cc(Cl)c1 | > 10000 nM |  |  |
| CCCCCCNC(=O)NC1=NC(=O)CN1C | > 10000 nM |  |  |
| CCCCN1CC(=O)N=C1NC(=O)Nc1cccc(Cl)c1 | 680 nM | 1300 nM |  |
| CN1CC(=O)N=C1NC(=O)Cc1cccc(Cl)c1 |  |  | IC50 [1]: Not Active |
| CN1CCC/C1=N\C(=O)Nc1cccc(Cl)c1 | 620 nM | 2000 nM |  |
| CN1C(=O)CN=C1NC(=O)Nc1cccc(Cl)c1 | > 10000 nM | > 10000 nM |  |
| COC(=O)c1cccc(NC(=O)NC2=NC(=O)CN2C)c1 | > 10000 nM |  |  |

Continued, in another order:

| IC50 ([1]; read-out: IC50) | IC50 [2] | SMILES | other results |
| --- | --- | --- | --- |
| > 10000 nM |  | O=C(NC1=NC(=O)C2CCCN12)Nc1ccc(Cl)cc1 (stereo not given) |  |
| 330 nM | 460 nM | CN1CC(=O)N=C1NC(=O)Nc1cccc(Cl)c1 [FENOBAM ANHYDROUS] | CL [3]: 50 µL/min/mg; CL [4]: 50 µL/min/mg |
| 1900 nM |  | Cc1cccnc1NC(=O)NC1=NC(=O)CN1C |  |
| > 10000 nM |  | Cc1ccccc1NC(=O)NC1=NC(=O)C2CCCN12 (stereo not given) |  |
| 3900 nM | 3400 nM | CN1CC(=O)N=C1NC(=O)Nc1cccc(C#N)c1 |  |
| 800 nM | 1600 nM | O=C(NC1=NC(=O)C2CCCN12)Nc1cccc(Cl)c1 (stereo not given) |  |
| > 10000 nM |  | Cc1cccc(NC(=O)NC2=NC(=O)C3CCCN23)c1C (stereo not given) |  |
| 4200 nM |  | O=C(NC1=NC(=O)C2CCCN12)Nc1ccccc1 (stereo not given) |  |
| 490 nM | 1300 nM | CC1C(=O)N=C(NC(=O)Nc2cccc(Cl)c2)N1C (stereo not given) |  |
| > 10000 nM |  | Cc1ccc(C)c(NC(=O)NC2=NC(=O)C3CCCN23)c1 (stereo not given) |  |
| 410 nM | 320 nM | CCN1C(NC(=O)Nc2cccc(Cl)c2)=NC(=O)C1C (stereo not given) |  |
| 250 nM | 180 nM | CCN1CC(=O)N=C1NC(=O)Nc1cccc(Cl)c1 |  |
| 550 nM |  | Cc1cccc(NC(=O)NC2=NC(=O)CN2C)c1 |  |
| > 10000 nM |  | Cc1ccc(NC(=O)NC2=NC(=O)C3CCCN23)cc1Cl (stereo not given) |  |
| 1400 nM | > 10000 nM | Cc1cccc(NC(=O)NC2=NC(=O)C(c3ccccc3)N2C)c1 (stereo not given) |  |
